Three molecules from patent US20250213451A1, “AN ORAL CARE COMPOSITION COMPRISING A GLYCOLIPID AND A MILD SURFACTANT” (priority 2021, published 2025) can be followed below.

The data set concerns oral tissue cells based on EpiOral Tissue Model. Briefly: Oral irritation evaluation, EpiOral Tissue Model. The format is cell-based. As for the experimental part:
The oral irritation evaluation was conducted to test the surfactant mildness and oral irritation. The test sample solution was prepared in aqueous solution with 1% active content at pH of 7. The test sample solutions were applied to the oral tissue cells based on EpiOral Tissue Model provided by Mattek Corp. The viability of the cells over time was measured and used to calculate the time of exposure until viability is reduced to 50%, which is indicated by ET-50.

For `CCCCCCCCCCCCOS(=O)(=O)[O-].[Na+]` [Texapon ® OC-N, Sodium Lauryl Sulfate], where the note is “aqueous solution with 1% active content at pH of 7, class from ET-50”, the “Oral Irritation Classification” value is “Moderately irritation”. In addition, the “ET-50 based on EpiOral Model” value (aqueous solution with 1% active content at pH of 7, time of exposure until viability is reduced to 50%) was determined as 116.7 min.
Regarding PEG-12 [Pluracare ® E-600], the “Oral Irritation Classification” value (pH 7) is given as “None to minimal irritation”.
Turning to “Cocamidopropyl Betaine [Dehyton ® PK 45]”, under “pH 7”, the “ET-50 based on EpiOral Model” value was determined as 181.0 min and the “Oral Irritation Classification” value is reported as “Mildly irritation”.
